Where “and” joins values, the source holds several entries; their conditions need not be identical. Equal values may be shown once. Inconclusive results and toxic doses are left out. Rule as the data show it: active = T/C of 150% or more; inactive = T/C below 125%.
Test system: L1210 leukemia ip in BDF1 mice, survival T/C
Experiment: NCI In Vivo Anticancer Drug Screen. Data for tumor model L1210 Leukemia (intraperitoneal) in B6D2F1 (BDF1) mice
Settings: higher = longer survival
In short: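 Tumor cells were implanted, animals were treated, and survival was followed. The result divides the treated measurement by the vehicle-control measurement.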

[1] = endpoint: mean survival time, dose: 100.0 mg/kg/injection, schedule: Q01DX001 (ip), vehicle: carboxymethylcellulose (CMC)
[2] = endpoint: mean survival time, dose: 200.0 mg/kg/injection, schedule: Q01DX001 (ip), vehicle: carboxymethylcellulose (CMC)
[3] = endpoint: mean survival time, dose: 25.0 mg/kg/injection, schedule: Q04DX002 (ip), vehicle: saline with Tween-80
[4] = endpoint: mean survival time, dose: 50.0 mg/kg/injection, schedule: Q04DX002 (ip), vehicle: saline with Tween-80
[5] = endpoint: mean survival time, dose: 100.0 mg/kg/injection, schedule: Q01DX001 (ip), vehicle: saline
[6] = endpoint: mean survival time, dose: 200.0 mg/kg/injection, schedule: Q01DX001 (ip), vehicle: saline
[7] = endpoint: mean survival time, dose: 400.0 mg/kg/injection, schedule: Q01DX001 (ip), vehicle: saline
[8] = endpoint: mean survival time, dose: 25.0 mg/kg/injection, schedule: Q01DX001 (ip), vehicle: Klucel (hydroxypropylcellulose) (HPC)
[9] = endpoint: mean survival time, dose: 50.0 mg/kg/injection, schedule: Q01DX001 (ip), vehicle: Klucel (hydroxypropylcellulose) (HPC)
[10] = endpoint: mean survival time, dose: 100.0 mg/kg/injection, schedule: Q01DX001 (ip), vehicle: Klucel (hydroxypropylcellulose) (HPC)
[11] = endpoint: mean survival time, dose: 100.0 mg/kg/injection, schedule: Q01DX009 (ip), vehicle: saline with Tween-80
[12] = endpoint: mean survival time, dose: 50.0 mg/kg/injection, schedule: Q01DX009 (ip), vehicle: saline with Tween-80
[13] = endpoint: mean survival time, dose: 100.0 mg/kg/injection, schedule: Q01DX009 (ip), vehicle: Klucel (hydroxypropylcellulose) (HPC)
[14] = endpoint: mean survival time, dose: 100.0 mg/kg/injection, schedule: Q04DX003 (ip), vehicle: Klucel (hydroxypropylcellulose) (HPC)
[15] = endpoint: mean survival time, dose: 200.0 mg/kg/injection, schedule: Q01DX009 (ip), vehicle: Klucel (hydroxypropylcellulose) (HPC)
[16] = endpoint: mean survival time, dose: 200.0 mg/kg/injection, schedule: Q04DX003 (ip), vehicle: Klucel (hydroxypropylcellulose) (HPC)
[17] = endpoint: mean survival time, dose: 400.0 mg/kg/injection, schedule: Q01DX009 (ip), vehicle: Klucel (hydroxypropylcellulose) (HPC)
[18] = endpoint: mean survival time, dose: 400.0 mg/kg/injection, schedule: Q04DX003 (ip), vehicle: Klucel (hydroxypropylcellulose) (HPC)
[19] = endpoint: mean survival time, dose: 25.0 mg/kg/injection, schedule: Q01DX009 (ip), vehicle: Klucel (hydroxypropylcellulose) (HPC)
[20] = endpoint: mean survival time, dose: 100.0 mg/kg/injection, schedule: Q04DX003 (ip), vehicle: saline
[21] = endpoint: mean survival time, dose: 200.0 mg/kg/injection, schedule: Q04DX003 (ip), vehicle: saline
[22] = endpoint: mean survival time, dose: 400.0 mg/kg/injection, schedule: Q04DX003 (ip), vehicle: saline
[23] = endpoint: mean survival time, dose: 200.0 mg/kg/injection, schedule: Q01DX009 (ip), vehicle: saline with Tween-80
[24] = endpoint: mean survival time, dose: 50.0 mg/kg/injection, schedule: Q01DX009 (ip), vehicle: saline

Measured: T/C

O=C1c2cc(N=C(NO)C(F)(F)F)ccc2-c2ccc([N+](=O)[O-])cc21
inactive: [1] 90 % of control | [2] 90 % of control | endpoint: mean survival time, dose: 400.0 mg/kg/injection, schedule: Q01DX001 (ip), vehicle: carboxymethylcellulose (CMC) 100 % of control

CCC12CC3(C(=O)OC)OC1C(O)CN1CCc4c(n3c3cc(OC)ccc43)C12 (stereo not drawn)
inactive: endpoint: mean survival time, dose: 6.25 mg/kg/injection, schedule: Q04DX002 (ip), vehicle: saline with Tween-80 100 % of control | endpoint: mean survival time, dose: 12.5 mg/kg/injection, schedule: Q04DX002 (ip), vehicle: saline with Tween-80 107 % of control | [3] 103 % of control | [4] 100 % of control and 86 % of control | endpoint: mean survival time, dose: 200.0 mg/kg/injection, schedule: Q04DX002 (ip), vehicle: saline with Tween-80 89 % of control | endpoint: mean survival time, dose: 400.0 mg/kg/injection, schedule: Q04DX002 (ip), vehicle: saline with Tween-80 89 % of control

NC(N)=NCCCNCCCN=C(N)N
inactive: endpoint: mean survival time, dose: 17.5 mg/kg/injection, schedule: Q01DX Z (oral), vehicle: saline 100 % of control | endpoint: mean survival time, dose: 35.0 mg/kg/injection, schedule: Q01DX Z (oral), vehicle: saline 101 % of control | endpoint: mean survival time, dose: 70.0 mg/kg/injection, schedule: Q01DX Z (oral), vehicle: saline 114 % of control | endpoint: mean survival time, dose: 140.0 mg/kg/injection, schedule: Q01DX Z (oral), vehicle: saline 117 % of control

CNC(=O)Nc1nc2ccc([N+](=O)[O-])cc2[nH]1
inactive: [5] 105 % of control | [6] 103 % of control | [7] 97 % of control

CCC(=O)OC1(c2ccccc2)CCN(C2CC2)CC1
inactive: [8] 92 % of control | [9] 97 % of control | [10] 100 % of control

CC(C)(C)OC(=O)NCCCCC(NC(=O)OCc1ccccc1)C(=O)O (stereo not drawn)
inactive: [3] 90 % of control | [4] 97 % of control | [11] 89 % of control | endpoint: mean survival time, dose: 100.0 mg/kg/injection, schedule: Q04DX002 (ip), vehicle: saline with Tween-80 101 % of control

COc1ccc(OC)c(NC(=O)NNC(=O)c2ccc(Cl)cc2)c1
inactive: endpoint: mean survival time, dose: 25.0 mg/kg/injection, schedule: Q01DX009 (ip), vehicle: saline with Tween-80 95 % of control | [12] 94 % of control | [11] 92 % of control

CCOC(=O)c1c[nH]c2ccc(N(CCCl)CCCl)cc12
inactive: endpoint: mean survival time, dose: 5.0 mg/kg/injection, schedule: Q01DX001 (ip), vehicle: carboxymethylcellulose (CMC) 98 % of control | endpoint: mean survival time, dose: 10.0 mg/kg/injection, schedule: Q01DX001 (ip), vehicle: carboxymethylcellulose (CMC) 104 % of control | endpoint: mean survival time, dose: 20.0 mg/kg/injection, schedule: Q01DX001 (oral), vehicle: carboxymethylcellulose (CMC) 98 % of control | endpoint: mean survival time, dose: 40.0 mg/kg/injection, schedule: Q01DX001 (oral), vehicle: carboxymethylcellulose (CMC) 103 % of control | endpoint: mean survival time, dose: 80.0 mg/kg/injection, schedule: Q01DX001 (oral), vehicle: carboxymethylcellulose (CMC) 103 % of control | endpoint: mean survival time, dose: 160.0 mg/kg/injection, schedule: Q01DX001 (oral), vehicle: carboxymethylcellulose (CMC) 107 % of control | endpoint: mean survival time, dose: 320.0 mg/kg/injection, schedule: Q01DX001 (oral), vehicle: carboxymethylcellulose (CMC) 115 % of control

CC(=O)Nc1ccc(C=Nc2ccc3c(c2)Cc2ccccc2-3)cc1
inactive: [13] 91 % of control | [14] 94 % of control | [15] 87 % of control | [16] 90 % of control | [17] 86 % of control | [18] 89 % of control

CC1(C)CCCC(Br)C1=O (stereo not drawn)
inactive: endpoint: mean survival time, dose: 50.0 mg/kg/injection, schedule: Q01DX009 (ip), vehicle: Klucel (hydroxypropylcellulose) (HPC) 97 % of control | [13] 104 % of control

NS(=O)(=O)c1cc(Cl)ccc1Cl
inactive: endpoint: mean survival time, dose: 100.0 mg/kg/injection, schedule: Q01DX001 (ip), vehicle: saline with Tween-80 88 % of control | endpoint: mean survival time, dose: 200.0 mg/kg/injection, schedule: Q01DX001 (ip), vehicle: saline with Tween-80 94 % of control | endpoint: mean survival time, dose: 400.0 mg/kg/injection, schedule: Q01DX001 (ip), vehicle: saline with Tween-80 91 % of control

CC1CC(N2CSC(=S)N(C3CC(C)CC(C)(C)C3)C2)CC(C)(C)C1 (stereo not drawn)
inactive: [19] 93 % of control | [13] 86 % of control and 90 % of control | [14] 89 % of control | [16] 94 % of control | [18] 91 % of control

CCC(C)(O)CCCC(C)C (stereo not drawn)
inactive: [20] 97 % of control | [21] 100 % of control | [22] 92 % of control

Cc1ccc(S(=O)(=O)N(CCCc2c(C)nc(N)nc2Cl)c2ccccc2)cc1
inactive: [10] 86 % of control | endpoint: mean survival time, dose: 400.0 mg/kg/injection, schedule: Q01DX001 (ip), vehicle: Klucel (hydroxypropylcellulose) (HPC) 93 % of control

Cc1ccc(NCC(O)CN2CCCC2)cc1 (stereo not drawn)
inactive: endpoint: mean survival time, dose: 6.0 mg/kg/injection, schedule: Q01DX009 (ip), vehicle: Klucel (hydroxypropylcellulose) (HPC) 94 % of control | endpoint: mean survival time, dose: 12.0 mg/kg/injection, schedule: Q01DX009 (ip), vehicle: Klucel (hydroxypropylcellulose) (HPC) 92 % of control | endpoint: mean survival time, dose: 12.5 mg/kg/injection, schedule: Q01DX001 (ip), vehicle: Klucel (hydroxypropylcellulose) (HPC) 93 % of control | endpoint: mean survival time, dose: 12.5 mg/kg/injection, schedule: Q04DX003 (ip), vehicle: Klucel (hydroxypropylcellulose) (HPC) 104 % of control | [8] 93 % of control | [19] 96 % of control and 100 % of control | endpoint: mean survival time, dose: 25.0 mg/kg/injection, schedule: Q04DX003 (ip), vehicle: Klucel (hydroxypropylcellulose) (HPC) 96 % of control | [9] 93 % of control

O=C(Oc1ccccc1)C1OC1c1ccccc1 (stereo not drawn)
inactive: endpoint: mean survival time, dose: 100.0 mg/kg/injection, schedule: Q04DX003 (ip), vehicle: alcohol 103 % of control | endpoint: mean survival time, dose: 200.0 mg/kg/injection, schedule: Q04DX003 (ip), vehicle: alcohol 98 % of control | endpoint: mean survival time, dose: 400.0 mg/kg/injection, schedule: Q04DX003 (ip), vehicle: alcohol 105 % of control

CCCCOc1ccc(C=Nc2ccc(CC)cc2)cc1
inactive: [11] 94 % of control | [23] 102 % of control | endpoint: mean survival time, dose: 400.0 mg/kg/injection, schedule: Q01DX009 (ip), vehicle: saline with Tween-80 97 % of control

BrCC1OCC2(CO1)COC(CBr)OC2 (stereo not drawn)
inactive: [14] 96 % of control | [16] 104 % of control

Cc1ccc(C(c2ccc(C)c(C)c2)C(O)C(O)C(O)C(O)CO)cc1C (stereo not drawn)
inactive: [10] 92 % of control | [5] 87 % of control | endpoint: mean survival time, dose: 200.0 mg/kg/injection, schedule: Q01DX001 (ip), vehicle: Klucel (hydroxypropylcellulose) (HPC) 100 % of control | [6] 91 % of control | [7] 89 % of control

CCOC(=O)c1[nH]c(C)nc1/N=N/N(C)C
inactive: endpoint: median survival time, dose: 25.0 mg/kg/injection, schedule: Q01DX009 (ip), vehicle: Klucel (hydroxypropylcellulose) (HPC) 116 % of control

Cc1ccc(Cl)c(NC(=O)Nc2cccc(C(F)(F)F)c2)c1
inactive: [13] 87 % of control | [15] 87 % of control | [17] 90 % of control

COc1ccc(C)cc1NC(=O)NC(C)=O
inactive: [12] 92 % of control | [11] 88 % of control | [23] 95 % of control

CCOC1=CC(=O)CCC1
inactive: [24] 98 % of control | endpoint: mean survival time, dose: 100.0 mg/kg/injection, schedule: Q01DX009 (ip), vehicle: saline 94 % of control | [20] 98 % of control | endpoint: mean survival time, dose: 200.0 mg/kg/injection, schedule: Q01DX009 (ip), vehicle: saline 100 % of control | [21] 110 % of control | [22] 101 % of control

CC(CN(C)C)C(=O)/C=C/c1ccccc1 (stereo not drawn)
inactive: endpoint: mean survival time, dose: 12.5 mg/kg/injection, schedule: Q01DX009 (ip), vehicle: saline 103 % of control | endpoint: mean survival time, dose: 25.0 mg/kg/injection, schedule: Q01DX009 (ip), vehicle: saline 104 % of control | [24] 107 % of control

CCN(CC)Cc1c(C)cc2oc(=O)c3c(c2c1O)CCCC3
inactive: [1] 93 % of control | [2] 93 % of control
